Our source for the IC50 values is paper PMC8544881 (mSphere, 2021).

This assay addresses T1, ZBTB25 (Homo sapiens, UniProt P24278).
T1 construct: recombinant ZBTB25 protein
T1 sequence (P24278 1-435): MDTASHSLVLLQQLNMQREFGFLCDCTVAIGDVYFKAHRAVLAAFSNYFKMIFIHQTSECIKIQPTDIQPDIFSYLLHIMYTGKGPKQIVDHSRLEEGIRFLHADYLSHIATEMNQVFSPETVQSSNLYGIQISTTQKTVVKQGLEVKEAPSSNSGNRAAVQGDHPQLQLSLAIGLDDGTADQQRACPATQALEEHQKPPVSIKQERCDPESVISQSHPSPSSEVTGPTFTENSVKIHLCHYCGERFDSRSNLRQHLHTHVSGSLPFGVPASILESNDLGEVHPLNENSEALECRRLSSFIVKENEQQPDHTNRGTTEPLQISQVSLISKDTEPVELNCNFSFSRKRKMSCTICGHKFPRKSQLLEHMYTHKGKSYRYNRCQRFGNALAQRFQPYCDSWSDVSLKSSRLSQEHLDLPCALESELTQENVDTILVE
Description: zinc ejection assay with FluoZin-3 fluorescence. The assay is classed as binding.

The compound `CCN(CC)C(=S)SSC(=S)N(CC)CC` [DS, disulfiram] returned a 50% inhibitory concentration (IC50) of 10.3 ± 0.3 µM.
The figure for dithiopyridine [DP] is 4.61 ± 0.28 µM.
